From PubChem BioAssay (NCI) come the findings set out here.

Several values for one entry are separate records, joined by “and”; a condition that tells them apart may be missing. Equal values may be shown once.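 Each compound was tested at five concentrations against cells in 96-well plates for 48 hours. The concentration for 50% growth inhibition is given as GI50. Definition used: TGI = concentration required for complete inhibition of growth.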

Some test systems named below: EKVX NSCLC; HOP-62 NSCLC; HT29 colon; MOLT-4 leukemia; NCI-H522 lung; OVCAR-3 ovarian; OVCAR-8 ovarian; SK-OV-3 ovarian; SW-620 colon; UACC-257 melanoma.
Experiment in all cases: growth of human tumour cells (NCI), 48 h

Turning to `O=S(=O)(Sc1ccc(Cl)cc1)c1ccc(Cl)cc1`, the TGI amounted to 57.5 µM in the assay with EKVX NSCLC; 30.9 µM in the assay on HOP-62 NSCLC; 35 µM with HT29 colon; 44.5 µM in the assay on MOLT-4 leukemia; 31.1 µM with NCI-H522 lung; 30.2 µM in the assay with OVCAR-3 ovarian. Further, the TGI in the assay with OVCAR-8 ovarian was 30.2 µM; in the assay with SK-OV-3 ovarian, 85.2 µM; in the assay on SW-620 colon, 32.6 µM; in the assay with UACC-257 melanoma it was 36.3 µM.

In the case of `CN1CCCCC1CCN1CCCCC1` (stereo not drawn), the TGI in the assay with EKVX NSCLC, with HOP-62 NSCLC, in the assay with HT29 colon, with MOLT-4 leukemia, with NCI-H522 lung and with OVCAR-3 ovarian was above 100 µM in each case. Moreover, the TGI with OVCAR-8 ovarian, in the assay with SK-OV-3 ovarian, in the assay with SW-620 colon and in the assay on UACC-257 melanoma was above 100 µM throughout.

In the case of `Cc1c2cc[n+](CCN3CCCCC3)cc2c(C)c2c1[nH]c1ccc(O)cc12`, the GI50 was 7.83 µM with EKVX NSCLC; 4.67 µM in the assay with HT29 colon; 0.267 µM and 0.0385 µM with MOLT-4 leukemia; 11.1 µM in the assay on OVCAR-3 ovarian; 3.36 µM with OVCAR-8 ovarian; 4.42 µM in the assay on SK-OV-3 ovarian. For the same compound, the GI50 was 6.26 µM in the assay on SW-620 colon and 28.7 µM with UACC-257 melanoma. Also, the TGI in the assay on EKVX NSCLC was 24.6 µM and 51.5 µM; in the assay with HOP-62 NSCLC it was 13 µM and 18.3 µM; with HT29 colon it was 28 µM and 47.4 µM; in the assay with MOLT-4 leukemia, 8.96 µM and 5.96 µM; in the assay with NCI-H522 lung it was 53.5 µM and 16.2 µM; in the assay with OVCAR-3 ovarian, 40.2 µM and > 50.3 µM. In addition, the TGI in the assay on OVCAR-8 ovarian was 30.6 µM and 44.7 µM; with SK-OV-3 ovarian, 33.9 µM and 31.2 µM; in the assay on SW-620 colon, 55.4 µM and > 71 µM; in the assay with UACC-257 melanoma, 29 µM and > 74 µM.
